According to PubChem BioAssay (NCI):
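Compound exposure: 48 hours, 5 concentrations, 96-well plates. Definition used: TGI = concentration required for complete inhibition of growth.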 Activity calls are given as the source filed them. Cut-off read from the data, not from the text of the source: active = GI50 below about 0.43 µM; inactive = the rest.

Key:
Experiment in all cases: NCI-60 cell line screen, 48 h
[1] = tested on: SK-MEL-2 melanoma
[2] = tested on: A498 renal
[3] = tested on: U251 CNS
[4] = tested on: HL-60(TB) leukemia
[5] = tested on: HCT-116 colon
[6] = tested on: SNB-19 CNS
[7] = tested on: SR leukemia
[8] = tested on: OVCAR-8 ovarian
[9] = tested on: SF-539 CNS
[10] = tested on: HOP-62 NSCLC
[11] = tested on: COLO 205 colon
[12] = tested on: SNB-75 CNS
[13] = tested on: SF-295 CNS
[14] = tested on: SN12C renal
[15] = tested on: SF-268 CNS
[16] = tested on: K-562 leukemia
[17] = tested on: HOP-92 NSCLC
[18] = tested on: NCI/ADR-RES ovarian
[19] = tested on: SK-MEL-28 melanoma
[20] = tested on: LOX IMVI melanoma
[21] = tested on: NCI-H522 lung
[22] = tested on: NCI-H226 lung
[23] = tested on: EKVX NSCLC
[24] = tested on: NCI-H23 lung
[25] = tested on: TK-10 renal
[26] = tested on: HCC-2998 colon
[27] = tested on: UACC-62 melanoma
[28] = tested on: IGROV1 ovarian
[29] = tested on: UO-31 renal
[30] = tested on: OVCAR-5 ovarian
[31] = tested on: HCT-15 colon
[32] = tested on: MCF7 breast
[33] = tested on: SK-OV-3 ovarian
[34] = tested on: KM12 colon
[35] = tested on: CAKI-1 renal
[36] = tested on: RPMI-8226 leukemia
[37] = tested on: SW-620 colon
[38] = tested on: MDA-MB-435
[39] = tested on: CCRF-CEM leukemia
[40] = tested on: OVCAR-3 ovarian
[41] = tested on: HT29 colon
[42] = tested on: MDA-N
[43] = tested on: 786-0 renal
[44] = tested on: MOLT-4 leukemia
[45] = tested on: DU-145 prostate
[46] = tested on: SK-MEL-5 melanoma
[47] = tested on: A549 NSCLC
[48] = tested on: HS 578T breast
[49] = tested on: PC-3 prostate
[50] = tested on: M14 melanoma
[51] = tested on: MDA-MB-231 breast
[52] = tested on: BT-549 breast
[53] = tested on: UACC-257 melanoma
[54] = tested on: OVCAR-4 ovarian
[55] = tested on: T-47D breast
[56] = tested on: ACHN renal
[57] = tested on: MALME-3M melanoma
[58] = tested on: NCI-H460 lung

Measured: TGI

O=c1cc(-c2ccc(O)c(O)c2-c2c(O)cc(O)c3c(=O)cc(-c4ccc(O)c(O)c4)oc23)oc2cc(O)cc(O)c12
inactive: [1] | [2] | [3] | [4] | [5] | [6] | [7] | [8] | [9] | [10] | [11] | [12] | [13] | [14] | [15] | [16] | [17] | [18] | [19] | [20] | [21] | [22] | [23] | [24] | [25] | [26] | [27] | [28] | [29] | [30] | [31] | [32] | [33] | [34] | [35] | [36] | [37] | [38] | [39] | [40] | [41] | [42] | [43] | [44] | [45] | [46] | [47] | [48] | [49] | [50] | [51] | [52] | [53] | [54] | [55] | [56] | [57]

COC(=O)c1cc2/c(=N/O)c3ccccc3sc2o1
> 100 µM: [1] | [2] | [3] | [4] | [5] | [6] | [7] | [8] | [9] | [10] | [11] | [12] | [13] | [14] | [15] | [16] | [17] | [18] | [19] | [20] | [21] | [22] | [23] | [24] | [25] | [26] | [27] | [28] | [30] | [31] | [32] | [33] | [34] | [35] | [36] | [37] | [38] | [39] | [40] | [41] | [42] | [43] | [58] | [44] | [45] | [46] | [47] | [48] | [49] | [50] | [51] | [52] | [53] | [54] | [55] | [56] | [57]
